Measurements taken from patent US8946201B2, “Methods for inhibiting TGF-β” (Saint Louis University, priority 2007, dated 2015).

Assays:
[1] = tested on: TβR-I and TβR-II; test: 125I-TGF-β1 affinity labeling, BAEC; assay type: cell-based, bovine
Description: (B, C, D, E) Cells were treated with increasing concentrations of cholesterol in the presence (C) and absence (B, D, E) of 0.2% β-CD, as indicated. After 1 hr at 37° C., ^125I-TGF-β1 affinity labeling of TβR-I and TβR-II in cells was performed at 0° C. ^125I-TGF-β1 affinity-labeled TβR-I and TβR-II were analyzed by 7.5% SDS-PAGE and autoradiography or quantified with a PhosphoImager. A representative of a total of three analyses is shown (top). The bracket indicates the locations of ^125I-TGF-β affinity-labeled TβR-I and TβR-II. The relative intensities of ^125I-TGF-β1 affinity-labeled TβR-I and TβR-II in cells treated without cholesterol were taken as 100%. The quantitative data from three analyses is shown (bottom).
(§1) (A, B, C, D, E, F) Cells were treated with LDL (50 μg protein/ml), VLDL (5 μg protein/ml), HDL (50 μg protein/ml), lipoprotein (a) (10 μg/ml), fluvastatin (F; 1 μM), lovastatin (L; 1 μM), nystatin (Nys; 25 μg/ml), β-CD (β-CD; 8 mM), cholest-4-en-3-one (3-one; 50 μg/ml) or cholesterol (Chol; 50 μg/ml) alone or combination of two. After 1 hr at 37° C. or 16 hr at 37° C. (for fluvastatin and lovastatin), ^125I-TGF-β1 affinity labeling of cell-surface TGF-β receptors was performed at 0° C. ^125I-TGF-β1 affinity-labeled TβR-I and TβR-II were analyzed by 7.5% SDS-PAGE and autoradiography. The relative intensities of TβR-I and TβR-II were quantified with a PhosphoImager. The ratio of ^125I-TGF-β1 binding to TβR-II and TβR-I were estimated. The numbers above the lane sequence denote the ratio of TβR-II/TβR-I.
(§2) After cross-linking, cell lysates were analyzed by 7.5% SDS-PAGE and autoradiography or quantified by a PhosphoImager. For all experiments, cholesterol or cholesterol derivatives were prepared as the stock solution with a concentration of 25 mg/ml in ethanol. The final concentration of ethanol in the medium was 0.2% (by vol.).

[2] = tested on: luciferase reporter gene driven by the PAI-1 promoter; test: Luciferase activity assay, MLECs-clone 32; assay type: cell-based, mink
Description: (A, B, C, D, E, F) Cells were treated with 50 μg/ml cholesterol (A, B, C, D) and 50 μg/ml LDL (D) at 37° C. for 1 hr or with 1 μM fluvastatin or lovastatin (E) or several concentrations of fluvastatin (F) at 37° C. for 16 hr and then further incubated with increasing concentrations (as indicated) of TGF-β1 (A, B, C, E) or 50 pM TGF-β1 (D,F) for 2 hr. Northern blot analysis of PAI-1 and G3PDH was performed. A representative of a total of three analyses is shown (a). The relative intensities of the transcripts were quantified with a PhosphoImager. The ratio of the relative intensities of PAI-1 and G3PDH transcripts in cells treated without TGF-β1 and cholesterol, LDL or statins on the blot was taken as 1 fold or 100% of PAI-1 expression. The quantitative data from three independent analyses is shown (b). […] (G) Mv1Lu cells stably expressing a luciferase reporter gene driven by the PAI-1 promoter (MLECs-clone 32) were treated with increasing concentrations (as indicated) of cholesterol at 37 EC for 1 hr (a) or with 1 μM lovastatin at 37° C. for 16 hr (b) and then further incubated with 50 pM TGF-β for 7 hr. The luciferase activity in cells treated without cholesterol was taken as 100% (a). […] (H) Cells were incubated with 0.0625 and 0.125 pM TGF-β1 in the presence of increasing concentrations of cholesterol, as indicated. […] The experiments were carried out in triplicate.

[3] = tested on: Mv1Lu cells; test: Cell viability under the experimental conditions, Mv1Lu cells; assay type: cell-based, mink; settings: conditions of the thymidine incorporation or affinity labeling experiment
Description: The growth of cholesterol-treated cells was determined by measurement of [methyl-^3H]thymidine incorporation into cellular DNA as described (30). Briefly, cells grown near confluence on 48-well clustered dishes were treated with several concentrations of cholesterol at 37° C. for 1 hr in serum-free DMEM. The final concentration of ethanol (the vehicle for cholesterol) in the medium was 0.2%. Treated cells were then incubated with 0.0625 pM or 0.125 pM of TGF-β1 in DMEM containing 0.1% fetal calf serum at 37° C. for 18 hr. The [methyl-^3H]thymidine incorporation into cellular DNA was then determined by incubation of cells with [methyl-^3H]thymidine at 37° C. for 2 hr in DMEM containing 0.1% fetal calf serum. The optimal concentrations of TGF-β1 to inhibit cell growth are in the range of 0.1 to 1 pM.
To define the specificity of the cholesterol effect, we determined the effects of cholesterol analogs and derivatives on ^125I-TGF-β1 binding to TβR-I and TβR-II in Mv1Lu cells. These cells were treated with 50 μg/ml of cholesterol or related oxysterol derivatives (25-hydroxycholesterol, 7-dehydrocholesterol (7-DHC), oxidized 7-DHC (oxy-7-DHC), cholest-5-en-7-one, 7-ketocholesterol, 7β,8β-epoxycholestanol, and 7β-hydroxycholesterol) at 37° C. for 1 hr. ^125I-TGF-β1 binding to TGF-β receptors was then determined by affinity labeling.

[4] = tested on: TβR-I and TβR-II; test: 125I-TGF-β1 affinity labeling, CHO-K1 cells; assay type: cell-based, Chinese hamster; settings: 1 μM, 37° C. 16 hr, 0.12 untreated
Description: as §1
as §2, with “vol.). […]” for “vol.).”

effect on binding of 125I-TGF-β1 to TβR-II ([1]; increasing concentrations, 1 hr, BAEC)	effect of cholesterol alone on TGF-β-stimulated luciferase activity ([2]; 25 ug/ml, without lovastatin)	effect on the stimulatory effect of lovastatin on TGF-β-stimulated luciferase activity ([2]; cholesterol 25 ug/ml for 1 hr prior to TGF-β stimulation)	Structure (SMILES)	increase of 125I-TGF-β1 binding to TβR-I ([1]; 50 μg/ml, 1 hr, BAEC)	ratio of TβR-II/TβR-I ([1]; 50 μg/ml, 1 hr, BAEC, 3.5 untreated)	suppression of TGF-β1-stimulated luciferase activity ([2]; 50 μg/ml, 50 pM TGF-β1)	luciferase activity ([2]; cells treated with cholesterol (25 ug/ml), lovastatin and TGF-β1)	effect on cell viability [3]	ratio of TβR-II/TβR-I [4]	ratio of TβR-II/TβR-I ([1]; 1 μM, 37° C. 16 hr, BAEC cells, 2.47 untreated)	enhancement of TGF-β1-stimulated luciferase activity ([2]; 1 μM, 16 hr, 50 pM TGF-β1)
did not significant alter	did not alter	abolished	CC(C)CCC[C@@H](C)[C@H]1CC[C@H]2[C@@H]3CC=C4C[C@@H](O)CC[C@]4(C)[C@H]3CC[C@]12C [cholesterol]	~2.5 fold	1.4	40%	2314±120 A.U	did not appear to affect			
			CC[C@H](C)C(=O)O[C@H]1C[C@@H](C)C=C2C=C[C@H](C)[C@H](CC[C@@H]3C[C@@H](O)CC(=O)O3)[C@H]21 [lovastatin, reference compound]						0.18	2.6	1.7 fold
